Measured values from patent US20240300991A1, “NUCLEOSIDE DERIVATIVE HAVING MULTI-TARGET KINASE INHIBITORY ACTIVITY AND PHARMACEUTICAL COMPOSITION FOR PREVENTING AND TREATING CANCER COMPRISING SAME” (FUTURE MEDICINE CO., LTD., priority 2021, published 2024).

Key:
NTRK1 = biological target: T1, NTRK1 (Homo sapiens, UniProt P04629); experiment: Kinase inhibition test (DNA-tagged kinase, affinity resin, qPCR readout); format: binding; parameters: key: (−) indicates no effect; (+) indicates weak inhibitory activity; (++) indicates a moderate level of inhibitory activity; (+++) indicates strong inhibitory activity; conditions: 1 μM of compound
T1 construct: made in house
From the text: (§1) In order to examine the inhibitory activity of the nucleoside derivatives of the present invention synthesized in the Preparation Examples against kinases, the nucleoside derivatives were confirmed to have inhibitory activity against neurotrophic tyrosine kinase receptor type 1 or tropomyosin receptor kinase A (NTRK1), casein kinase 1 isoform delta (CSNK1D), dual specificity tyrosine-phosphorylation-regulated kinase 1A (DYRK1A), dual specificity tyrosine-phosphorylation-regulated kinase 1B (DYRK1B) and receptor-type tyrosine-protein kinase or fms like tyrosine kinase 3 or cluster of differentiation antigen 135 (CD135) or fetal liver kinase-2 (Flk2) (FLT3).
(§2) The inhibition measurement method is as follows. Most of the kinases were produced by culturing a phage in which BL21 E. coli was tagged with a kinase at 32° C. until lysis, followed by centrifugation and filtration. Further, the kinases were produced using HEK-293 cells. Thereafter, the kinases were DNA tagged for qPCR. After an affinity resin was prepared by stirring a biotin-tagged substrate onto streptavidin-coated beads for 30 minutes, a non-specifically bound substrate was washed with a buffer (SeaBlock (Pierce), 1% BSA, 0.05% Tween 20, 1 mM DTT).
(§3) For a kinase test, the kinase, the substrate, the affinity resin, and a test material dissolved in dimethyl sulfoxide were stirred together in a buffer (20% SeaBlock, 0.17×PBS, 0.05% Tween20, and 6 mM DTT) at room temperature for 1 hour. Thereafter, an affinity substrate was washed with a buffer (1×PBS, 0.05% Tween20), and then suspended in an elution buffer (1×PBS, 0.05% Tween20, 0.5 μM non-biotinylated affinity ligand), and the resulting suspension was stirred. The concentration of the kinase was quantified by qPCR.

DYRK1A = biological target: T2, DYRK1A (Homo sapiens, UniProt Q13627); experiment: as above; format: binding; parameters: key: (−) indicates no effect; (+) indicates weak inhibitory activity; (++) indicates a moderate level of inhibitory activity; (+++) indicates strong inhibitory activity; conditions: 1 μM of compound
T2 construct: made in house
From the text: as §1, §2, §3

CSNK1D = biological target: T3, CSNK1D (Homo sapiens, UniProt P48730); experiment: as above; format: binding; parameters: key: (−) indicates no effect; (+) indicates weak inhibitory activity; (++) indicates a moderate level of inhibitory activity; (+++) indicates strong inhibitory activity; conditions: 1 μM of compound
T3 construct: made in house
From the text: as §1, §2, §3

DYRK1B = biological target: T4, DYRK1B (Homo sapiens, UniProt Q9Y463); experiment: as above; format: binding; parameters: key: (−) indicates no effect; (+) indicates weak inhibitory activity; (++) indicates a moderate level of inhibitory activity; (+++) indicates strong inhibitory activity; conditions: 1 μM of compound
T4 construct: made in house
From the text: as §1, §2, §3

[1] = test system: PC-3 (prostate cancer cells); experiment: Inhibitory activity against cancer cells (sulforhodamine B staining); format: cell-based; conditions: 3 days, SRB staining
Method: (§4) In order to examine the anticancer activity of the nucleoside derivatives of the present invention synthesized in the Preparation Examples, the ICso of each of A549 (lung cancer cells), HCT116 (colon cancer cells), MDA-MB-231 (breast cancer cells), SK-Hep-1 (liver cancer cells), SNU638 (stomach cancer cells) and PC-3 (prostate cancer cells) against cancer cells was measured.
(§5) The test method is as follows. Cells were allowed to stand for 1 day and set as a control on day 0. Further, after a test material was added to the cells, the cells were allowed to stand for 3 days. Thereafter, the cells were stained with 1% acetic acid and 0.4% sulforhodamine B. The stained cells were dried and dissolved in 10 mM Tris (pH 10.0). Absorbance was measured at 515 nm, and the degree of cell division was determined using the following equation. After calculation as Cell division (%)=(average absorbancetest material−average absorbanceday 0)/(average absorbance control-average absorbanceday 0)×100, the degree of cell division was calculated through a non-linear regression analysis using Table Curve 2D v5.01 (Systat Software Inc., San Jose, CA, USA).

[2] = test system: SNU638 (stomach cancer cells); experiment: as above; format: cell-based; conditions: 3 days, SRB staining
Method: as §4, §5

[3] = test system: SK-Hep-1 (liver cancer cells); experiment: as above; format: cell-based; conditions: 3 days, SRB staining
Method: as §4, §5

A549 (lung cancer cells) = experiment: as above; format: cell-based; conditions: 3 days, SRB staining
Method: as §4, §5

[4] = test system: MDA-MB-231 (breast cancer cells); experiment: as above; format: cell-based; conditions: 3 days, SRB staining
Method: as §4, §5

[5] = test system: HCT116 (colon cancer cells); experiment: as above; format: cell-based; conditions: 3 days, SRB staining
Method: as §4, §5

T1 sequence (P04629 33-796): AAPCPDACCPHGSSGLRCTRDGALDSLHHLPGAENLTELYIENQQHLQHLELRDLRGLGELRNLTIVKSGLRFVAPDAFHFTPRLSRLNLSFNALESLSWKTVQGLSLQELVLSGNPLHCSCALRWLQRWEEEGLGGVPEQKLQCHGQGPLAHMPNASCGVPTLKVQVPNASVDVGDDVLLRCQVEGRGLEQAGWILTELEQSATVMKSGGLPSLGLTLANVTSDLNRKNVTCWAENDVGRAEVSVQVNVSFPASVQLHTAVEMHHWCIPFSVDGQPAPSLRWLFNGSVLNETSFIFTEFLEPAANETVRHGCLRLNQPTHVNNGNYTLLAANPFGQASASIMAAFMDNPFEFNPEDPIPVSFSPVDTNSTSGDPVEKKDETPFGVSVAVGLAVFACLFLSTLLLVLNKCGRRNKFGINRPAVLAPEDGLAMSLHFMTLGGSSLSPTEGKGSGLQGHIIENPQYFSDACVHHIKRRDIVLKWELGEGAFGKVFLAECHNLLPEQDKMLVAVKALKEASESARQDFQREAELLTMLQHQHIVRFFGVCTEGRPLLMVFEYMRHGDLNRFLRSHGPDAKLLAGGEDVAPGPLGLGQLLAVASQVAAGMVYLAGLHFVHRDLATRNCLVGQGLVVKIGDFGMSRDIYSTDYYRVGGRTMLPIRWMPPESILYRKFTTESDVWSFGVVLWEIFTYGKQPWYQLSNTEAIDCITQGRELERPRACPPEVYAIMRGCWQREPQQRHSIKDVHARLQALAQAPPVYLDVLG
T4 sequence (Q9Y463 whole entry): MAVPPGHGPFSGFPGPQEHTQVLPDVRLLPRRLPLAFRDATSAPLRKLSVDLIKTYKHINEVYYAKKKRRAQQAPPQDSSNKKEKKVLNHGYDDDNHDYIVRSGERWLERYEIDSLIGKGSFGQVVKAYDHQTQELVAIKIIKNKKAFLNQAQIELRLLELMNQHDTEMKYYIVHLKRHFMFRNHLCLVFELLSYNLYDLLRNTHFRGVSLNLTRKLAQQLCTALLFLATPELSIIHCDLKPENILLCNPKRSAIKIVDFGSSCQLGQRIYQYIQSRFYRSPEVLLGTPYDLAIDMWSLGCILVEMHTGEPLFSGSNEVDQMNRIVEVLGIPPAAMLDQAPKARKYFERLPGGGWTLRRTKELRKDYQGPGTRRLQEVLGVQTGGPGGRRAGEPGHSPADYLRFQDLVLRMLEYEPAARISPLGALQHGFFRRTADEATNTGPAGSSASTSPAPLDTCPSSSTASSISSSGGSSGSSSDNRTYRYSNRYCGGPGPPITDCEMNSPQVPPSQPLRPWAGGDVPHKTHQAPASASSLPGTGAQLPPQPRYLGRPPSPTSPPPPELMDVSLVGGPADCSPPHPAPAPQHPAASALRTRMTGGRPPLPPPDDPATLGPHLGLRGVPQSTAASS
T3 sequence (P48730 whole entry): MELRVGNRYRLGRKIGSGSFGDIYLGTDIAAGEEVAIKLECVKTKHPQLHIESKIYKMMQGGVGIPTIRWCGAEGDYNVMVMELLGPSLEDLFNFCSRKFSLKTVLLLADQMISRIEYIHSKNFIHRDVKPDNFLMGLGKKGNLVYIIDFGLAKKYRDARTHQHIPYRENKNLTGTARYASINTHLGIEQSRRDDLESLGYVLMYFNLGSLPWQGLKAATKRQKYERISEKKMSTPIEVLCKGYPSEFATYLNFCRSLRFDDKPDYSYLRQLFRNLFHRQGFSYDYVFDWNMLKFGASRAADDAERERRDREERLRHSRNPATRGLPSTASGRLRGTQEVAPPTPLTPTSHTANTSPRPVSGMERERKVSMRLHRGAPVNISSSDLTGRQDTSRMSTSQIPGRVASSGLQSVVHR

SMILES	NTRK1 inhibitory activity (NTRK1)	DYRK1A inhibitory activity (DYRK1A)	CSNK1D inhibitory activity (CSNK1D)	DYRK1B inhibitory activity (DYRK1B)	IC50 ([1]; 72 h) [nM]	IC50 [2] [µM]	IC50 [1] [nM]	IC50 [3] [nM]	IC50 (A549 (lung cancer cells)) [µM]	IC50 [4] [µM]	IC50 [5] [nM]	IC50 ([2]; Homo sapiens, SNU-638, 72 h) [µM]	IC50 ([3]; Homo sapiens, SK-HEP1, 72 h) [nM]	IC50 (A549 (lung cancer cells); Homo sapiens, 72 h) [µM]	IC50 ([4]; Homo sapiens, 72 h) [µM]	IC50 ([5]; Homo sapiens, HCT-116, 72 h) [nM]
Nc1ncnc2c1c(-c1ccco1)cn2[C@@H]1S[C@H](CO)[C@@H](O)[C@H]1O [Compound 1a, (2R,3R,4S,5R)-2-(4-amino-5-(furan-2-yl)-7H-pyrrolo[2,3-d]pyrimidin-7-yl)-5-(hydroxymethyl)tetrahydrothiophene-3,4-diol]	+++	+++	++	+++	2460											
Nc1ncnc2c1c(-c1cccs1)cn2[C@@H]1S[C@H](CO)[C@@H](O)[C@H]1O [Compound 1b, (2R,3R,4S,5R)-2-(4-amino-5-(thiophen-2-yl)-7H-pyrrolo[2,3-d]pyrimidin-7-yl)-5-(hydroxymethyl)tetrahydrothiophene-3,4-diol]	+++	++	+++	++	2480											
Nc1ncnc2c1c(-c1ccccc1)cn2[C@@H]1S[C@H](CO)[C@@H](O)[C@H]1O [Compound 2b]	++	++	+++	++		6.32	9210	7810	7.57	8.83	6350					
C#Cc1cn([C@@H]2S[C@H](CO)[C@@H](O)[C@H]2O)c2ncnc(N)c12 [Compound 3, (2R,3R,4S,5R)-2-(4-amino-5-ethynyl-7H-pyrrolo[2,3-d]pyrimidin-7-yl)-5-(hydroxymethyl)tetrahydrothiophene-3,4-diol]	++	+++	++	+++	4							0.03	50	0.06	0.05	30
CCC#Cc1cn([C@@H]2S[C@H](CO)[C@@H](O)[C@H]2O)c2ncnc(N)c12 [Compound 4b]	+	+	+	+		> 50	> 50000	> 50000	> 50	> 50	> 50000					
CC(C)(C)C#Cc1cn([C@@H]2S[C@H](CO)[C@@H](O)[C@H]2O)c2ncnc(N)c12 [Compound 4c]	+	−	+	−		> 50	> 50000	> 50000	> 50	29.6	> 50000					
Nc1ncnc2c1c(C#CC1CC1)cn2[C@@H]1S[C@H](CO)[C@@H](O)[C@H]1O [Compound 4d]	++	−	+	−		> 50	> 50000	8310	> 50	30.6	> 50000					
N#Cc1cn([C@@H]2S[C@H](CO)[C@@H](O)[C@H]2O)c2ncnc(N)c12 [Compound 5, 4-amino-7-((2R,3R,4S,5R)-3,4-dihydroxy-5-(hydroxymethyl)tetrahydrothiophen-2-yl)-7H-pyrrolo[2,3-d]pyrimidine-5-carbonitrile]	++	+++	++	++	2180							1.22	1790	2.58	2.24	1590
NC(=O)c1cn([C@@H]2S[C@H](CO)[C@@H](O)[C@H]2O)c2ncnc(N)c12 [Compound 6, 4-amino-7-((2R,3R,4S,5R)-3,4-dihydroxy-5-(hydroxymethyl)tetrahydrothiophen-2-yl)-7H-pyrrolo[2,3-d]pyrimidine-5-carboxamide]	+	+++	++	++	1800							1.13	1660	1.99	2.1	1350
Nc1ncnc2c1c(-c1ccco1)cn2[C@@H]1S[C@H](COC(=O)c2ccccc2)[C@@H](O)[C@H]1O [Compound 7a]	+++	+++	++	+++		3.54	> 50000	1070	6.05	8.24	2210					
C#Cc1cn([C@@H]2S[C@H](CN3CCOCC3)[C@@H](O)[C@H]2O)c2ncnc(N)c12 [Compound 12a, (2R,3R,4S,5R)-2-(4-amino-5-ethynyl-7H-pyrrolo[2,3-d]pyrimidin-7-yl)-5-(morpholinomethyl)tetrahydrothiophene-3,4-diol]					13200							9.7	10200	11.7	11.2	9720
C#Cc1cn([C@@H]2SC(=C)[C@@H](O)[C@H]2O)c2ncnc(N)c12 [Compound 12b, (2R,3R,4S)-2-(4-amino-5-ethynyl-7H-pyrrolo[2,3-d]pyrimidin-7-yl)-5-methylenetetrahydrothiophene-3,4-diol]	+++	+++	+++	+++								0.62	310	0.25	0.5	730
